The subject of experiment [1] is symmetric dimethylation of arginine (SDMA) of PRMT5 substrates in MCF-7 cells. Put plainly: PRMT5 Cell Target Engagement (TE) Assay. The format is cell-based. As to conditions: Homo sapiens, MCF7, 72 h, 3 days treatment, SDMA high content imaging. In a few lines:
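Readout is single-cell nuclear symmetric-dimethylarginine immunofluorescence (Alexa488), normalized to DMSO-treated cells. Compounds were applied to MCF-7 cells for 3 days at 37 °C, top concentration 10000 nM in 1:3 steps over ten points; curves fitted with 4-parameter robust fit.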

Experiment [2] has as its target T1, Full-length (FL)-PRMT5-MEP50 enzyme complex (Homo sapiens, UniProt O14744).
T1 construct: Full-length (FL)-PRMT5-MEP50 enzyme complex (recombinant proteins from baculovirus-transfected Sf21 cells: FL-PRMT5; MW=73837 kDa and FL-MEP50; MW=38614); made in house; host or cells: baculovirus-transfected Sf21 cells
Put plainly: PRMT5-MEP50 Enzyme Methylation Assay (Version A). The format is biochemical. The method in brief:
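Compound was pre-incubated with enzyme for 60 min, then reacted 150 min at 37° C. at final 1.0 nM PRMT5-MEP50, 15 μM SAM and 75 nM biotinylated H4R3(Me1) peptide, in 50 mM Bicine pH 8.0 with 1% DMSO. SAMDI mass-spectrometric readout of Me1→Me2 conversion. EC50 from 4- or 7-parameter regression.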

Setting [3] is: second value of 7 parameter biphasic fit, read-out: Enzyme Methylation Assay Version A (EC50 2).
Setting [4] is: single EC50 = 4 parameter single site sigmoidal fit, EC50 1 = first value of 7 parameter biphasic fit, read-out: Enzyme Methylation Assay Version A (EC50 or EC50 1).

Read-outs that look alike come from different tables or passages of the source.

T1 sequence (O14744 whole entry): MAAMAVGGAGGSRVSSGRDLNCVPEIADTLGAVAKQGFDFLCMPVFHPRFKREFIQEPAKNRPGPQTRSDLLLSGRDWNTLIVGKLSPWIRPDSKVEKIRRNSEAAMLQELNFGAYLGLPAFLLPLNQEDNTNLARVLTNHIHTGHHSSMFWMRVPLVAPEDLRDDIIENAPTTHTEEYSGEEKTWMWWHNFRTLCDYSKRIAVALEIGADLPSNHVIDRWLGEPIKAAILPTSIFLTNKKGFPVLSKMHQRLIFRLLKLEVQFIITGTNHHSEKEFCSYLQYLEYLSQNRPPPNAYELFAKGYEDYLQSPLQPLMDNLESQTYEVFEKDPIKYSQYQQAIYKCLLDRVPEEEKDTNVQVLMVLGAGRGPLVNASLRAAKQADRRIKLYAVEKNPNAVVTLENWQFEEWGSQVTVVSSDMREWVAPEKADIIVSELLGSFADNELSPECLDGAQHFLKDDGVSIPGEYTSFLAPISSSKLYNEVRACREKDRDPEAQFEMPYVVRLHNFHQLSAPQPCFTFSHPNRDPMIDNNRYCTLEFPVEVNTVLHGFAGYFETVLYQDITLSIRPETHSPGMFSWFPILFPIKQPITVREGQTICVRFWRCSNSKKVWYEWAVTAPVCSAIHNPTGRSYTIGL
T1 sequence (Q9BQA1 whole entry partner): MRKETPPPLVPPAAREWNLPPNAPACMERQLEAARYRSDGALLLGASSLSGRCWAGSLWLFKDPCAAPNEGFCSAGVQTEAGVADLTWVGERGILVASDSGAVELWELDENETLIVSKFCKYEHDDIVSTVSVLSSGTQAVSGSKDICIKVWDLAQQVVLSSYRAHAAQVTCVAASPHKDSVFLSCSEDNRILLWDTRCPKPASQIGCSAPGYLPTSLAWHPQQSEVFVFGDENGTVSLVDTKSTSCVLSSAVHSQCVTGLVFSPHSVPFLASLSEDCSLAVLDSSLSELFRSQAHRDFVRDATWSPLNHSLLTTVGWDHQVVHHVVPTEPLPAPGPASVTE

`Cc1c(C(=O)N2CC[C@]3(Cc4ccccc4CN3)[C@H](O)C2)nn2cc(Br)cnc12` [Example 62, (6-bromo-3-methylpyrazolo[1,5-a]pyrimidin-2-yl)[(3R,3′R)-3′-hydroxy-1,4-dihydro-1′H,2H-spiro[isoquinoline-3,4′-piperidin]-1′-yl]methanone]: the results for the EC50 in experiment [1], in experiment [2] (setting [3]) and in experiment [2] (setting [4]) were 31 nM, 556 nM and 0.395 nM, respectively.
As to `Cc1nc2nc(C(=O)N3CC[C@]4(Cc5ccccc5CN4)[C@H](O)C3)cn2cc1C1CC1` [Example 63, (6-cyclopropyl-7-methylimidazo[1,2-a]pyrimidin-2-yl)[(3R,3′R)-3′-hydroxy-1,4-dihydro-1′H,2H-spiro[isoquinoline-3,4′-piperidin]-1′-yl]methanone], the values for the EC50 in experiment [1], in experiment [2] (setting [3]) and in experiment [2] (setting [4]) were 45.8 nM, 417 nM and 0.583 nM, respectively.
Consider `Cc1c(C2CC2)cnc2nc(C(=O)N3CC[C@]4(Cc5ccccc5CN4)[C@H](O)C3)cn12` [Example 64, (6-cyclopropyl-5-methylimidazo[1,2-a]pyrimidin-2-yl)[(3R,3′R)-3′-hydroxy-1,4-dihydro-1′H,2H-spiro[isoquinoline-3,4′-piperidin]-1′-yl]methanone], for which the EC50 in experiment [1] stood at 756 nM; in experiment [2] (setting [3]), 9770 nM; in experiment [2] (setting [4]), 19.1 nM.
The corresponding values for `Cc1nc(Br)cn2cc(C(=O)N3CC[C@]4(Cc5ccccc5CN4)[C@H](O)C3)nc12` [Example 65, (6-bromo-8-methylimidazo[1,2-a]pyrazin-2-yl)[(3R,3′R)-3′-hydroxy-1,4-dihydro-1′H,2H-spiro[isoquinoline-3,4′-piperidin]-1′-yl]methanone] are 99.1 nM, 1360 nM and 1.19 nM.
On to `Cc1cn2cc(C(=O)N3CC[C@]4(Cc5ccccc5CN4)[C@H](O)C3)nc2c(O)n1` [Example 66, 2-{[(3R,3′R)-3′-hydroxy-1,4-dihydro-1′H,2H-spiro[isoquinoline-3,4′-piperidin]-1′-y1]carbonyl}-6-methylimidazo[1,2-a]pyrazin-8(7H)-one], for which the EC50 in experiment [1] came out at 4410 nM; in experiment [2] (setting [3]), 9330 nM; in experiment [2] (setting [4]), 13.7 nM.
`COC(C)c1cc(C(F)(F)F)cn2cc(C(=O)N3CC[C@]4(Cc5ccccc5CN4)[C@H](O)C3)nc12` (stereo partly drawn) [Example 67, [(3R,3′R)-3′-hydroxy-1,4-dihydro-1′H,2H-spiro[isoquinoline-3,4′-piperidin]-1′-yl][8-(1-methoxyethyl)-6-(trifluoromethyl)imidazo[1,2-a]pyridin-2-yl]methanone]: the EC50 in experiment [1] is 7.98 nM; in experiment [2] (setting [3]), 313 nM; in experiment [2] (setting [4]), 0.354 nM.
The corresponding values for `N#CC1(c2cc(Br)cn3cc(C(=O)N4CC[C@]5(Cc6ccccc6CN5)[C@H](O)C4)nc23)CC1` [Example 68, 1-(6-bromo-2-{[(3R,3′R)-3′-hydroxy-1,4-dihydro-1′H,2H-spiro[isoquinoline-3,4′-piperidin]-1′-yl]carbonyl}imidazo[1,2-a]pyridin-8-yl)cyclopropanecarbonitrile] are 99.6 nM, 1060 nM and 1.17 nM.
On to `CC(C#N)c1ccc2nc(C(=O)N3CC[C@]4(Cc5ccccc5CN4)[C@H](O)C3)cn2c1` (stereo partly drawn) [Example 69, 2-(2-{[(3R,3′R)-3′-hydroxy-1,4-dihydro-1′H,2H-spiro[isoquinoline-3,4′-piperidin]-1′-yl]carbonyl}imidazo[1,2-a]pyridin-6-yl)propanenitrile], for which the EC50 in experiment [1] was found to be 12.7 nM; in experiment [2] (setting [3]), 43.6 nM; in experiment [2] (setting [4]) it was 0.405 nM.
On to `O=C(c1cc2ncc(C3CC3)cn2n1)N1CC[C@]2(Cc3ccccc3CN2)[C@H](O)C1` [Example 70, (6-cyclopropylpyrazolo[1,5-a]pyrimidin-2-yl)[(3R,3′R)-3′-hydroxy-1,4-dihydro-1′H,2H-spiro[isoquinoline-3,4′-piperidin]-1′-yl]methanone], for which the results for the EC50 in experiment [1], in experiment [2] (setting [3]) and in experiment [2] (setting [4]) were 263 nM, 240 nM and 0.27 nM, respectively.
On to `O=C(c1cn2ncc(Br)cc2n1)N1CC[C@]2(Cc3ccccc3CN2)[C@H](O)C1` [Example 71, (7-bromoimidazo[1,2-b]pyridazin-2-yl)[(3R,3′R)-3′-hydroxy-1,4-dihydro-1′H,2H-spiro[isoquinoline-3,4′-piperidin]-1′-yl]methanone], for which the values for the EC50 in experiment [1], in experiment [2] (setting [3]) and in experiment [2] (setting [4]) were 1500 nM, 8320 nM and 135 nM, respectively.
For `Cc1nc(C(F)(F)F)cn2cc(C(=O)N3CC[C@]4(Cc5ccccc5CN4)[C@H](O)C3)nc12` [Example 72, [(3R,3′R)-3′-hydroxy-1,4-dihydro-1′H,2H-spiro[isoquinoline-3,4′-piperidin]-1′-yl][8-methyl-6-(trifluoromethyl)imidazo[1,2-a]pyrazin-2-yl]methanone], in that order: 78.5 nM, 335 nM and 3.85 nM.
`O=C(c1cc2ncc(C(F)(F)F)cn2n1)N1CC[C@]2(Cc3ccccc3CN2)[C@H](O)C1` [Example 73, [(3R,3′R)-3′-hydroxy-1,4-dihydro-1′H,2H-spiro[isoquinoline-3,4′-piperidin]-1′-yl][6-(trifluoromethyl)pyrazolo[1,5-a]pyrimidin-2-yl]methanone]: the EC50 was determined as 339 nM in experiment [1], 344 nM in experiment [2] (setting [3]) and 4.43 nM in experiment [2] (setting [4]).
In the case of `Cn1nccc1-c1cnc2nc(C(=O)N3CC[C@]4(Cc5ccccc5CN4)[C@H](O)C3)cn2c1` [Example 78, [(3R,3′R)-3′-hydroxy-1,4-dihydro-1′H,2H-spiro[isoquinoline-3,4′-piperidin]-1′-yl][6-(1-methyl-1H-pyrazol-5-yl)imidazo[1,2-a]pyrimidin-2-yl]methanone], the results for the EC50 in experiment [1], in experiment [2] (setting [3]) and in experiment [2] (setting [4]) were 45.3 nM, 76.7 nM and 0.508 nM, respectively.
With `Cc1nc(C)c(-c2cnc3nc(C(=O)N4CC[C@]5(Cc6ccccc6CN5)[C@H](O)C4)cn3c2)s1` [Example 79, [6-(2,4-dimethyl-1,3-thiazol-5-yl)imidazo[1,2-a]pyrimidin-2-yl][(3R,3′R)-3′-hydroxy-1,4-dihydro-1′H,2H-spiro[isoquinoline-3,4′-piperidin]-1′-yl]methanone], the EC50 in experiment [1] is 5.3 nM; in experiment [2] (setting [4]) it was 1.08 nM.
Turning to `COC(C)c1cc(C(C)C)cn2cc(C(=O)N3CC[C@]4(Cc5ccccc5CN4)[C@H](O)C3)nc12` (stereo partly drawn) [Example 84, A diastereomer of [(3R,3′R)-3′-hydroxy-1,4-dihydro-1′H,2H-spiro[isoquinoline-3,4′-piperidin]-1′-yl][6-isopropyl-8-(1-methoxyethyl)imidazo[1,2-a]pyridin-2-yl]methanone], the EC50 came to 10.9 nM in experiment [1], 292 nM in experiment [2] (setting [3]) and 0.464 nM in experiment [2] (setting [4]).
As for `Cc1ccn2cc(C(=O)N3CC[C@]4(Cc5ccccc5CN4)[C@H](O)C3)nc2n1` [Example 111, [(3R,3′R)-3′-hydroxy-1,4-dihydro-1′H,2H-spiro[isoquinoline-3,4′-piperidin]-1′-yl](7-methylimidazo[1,2-a]pyrimidin-2-yl)methanone], the figures for the EC50 in experiment [1], in experiment [2] (setting [3]) and in experiment [2] (setting [4]) were 2710 nM, 35900 nM and 41.2 nM, respectively.
For the compound `COCc1cc(Cl)cn2cc(C(=O)N3CC[C@]4(Cc5ccccc5CN4)[C@H](O)C3)nc12` [Example 112, (6-chloro-8-(methoxymethyl)imidazo[1,2-a]pyridin-2-yl)((3R,3′R)-3′-hydroxy-1,4-dihydro-2H-spiro[isoquinoline-3,4′-piperidin]-1′-yl)methanone], the figures for the EC50 in experiment [1], in experiment [2] (setting [3]) and in experiment [2] (setting [4]) were 6.75 nM, 271 nM and 0.703 nM, respectively.
For `COCc1cc(C)cn2cc(C(=O)N3CC[C@]4(Cc5ccccc5CN4)[C@H](O)C3)nc12` [Example 113, ((3R,3′R)-3′-hydroxy-1,4-dihydro-2H-spiro[isoquinoline-3,4′-piperidin]-1′-yl)(8-(methoxymethyl)-6-methylimidazo[1,2-a]pyridin-2-yl)methanone], the EC50 in experiment [1] came to 17.2 nM; in experiment [2] (setting [3]), 339 nM; in experiment [2] (setting [4]), 0.682 nM.
For `Cc1c(Br)cnc2nc(C(=O)N3CC[C@]4(Cc5ccccc5CN4)[C@H](O)C3)cn12` [Example 119, (6-bromo-5-methylimidazo[1,2-a]pyrimidin-2-yl)[(3R,3′R)-3′-hydroxy-1,4-dihydro-1′H,2H-spiro[isoquinoline-3,4′-piperidin]-1′-yl]methanone], in that order: 274 nM, 6460 nM and 11.8 nM.
The corresponding values for `Cc1cnc2nc(C(=O)N3CC[C@]4(Cc5ccccc5CN4)[C@H](O)C3)cn2c1` [Example 120, [(3R,3′R)-3′-hydroxy-1,4-dihydro-1′H,2H-spiro[isoquinoline-3,4′-piperidin]-1′-yl](6-methylimidazo[1,2-a]pyrimidin-2-yl)methanone] are 28.8 nM, 351 nM and 0.499 nM.
The corresponding values for `O=C(c1cn2cc(Br)c(C(F)(F)F)nc2n1)N1CC[C@]2(Cc3ccccc3CN2)[C@H](O)C1` [Example 121, [6-bromo-7-(trifluoromethyl)imidazo[1,2-a]pyrimidin-2-yl][(3R,3′R)-3′-hydroxy-1,4-dihydro-1′H,2H-spiro[isoquinoline-3,4′-piperidin]-1′-yl]methanone] are 65.5 nM, 3310 nM and 4.88 nM.

By EC50 is commonly meant the concentration needed to bring the measured effect to its halfway point.
